We go through 3 molecules from PMC5096464 (Journal of the American Chemical Society, 2016).

One assay addresses T1, WT PafA (Elizabethkingia meningoseptica, UniProt Q9KJX5).
T1 sequence (Q9KJX5 26-546): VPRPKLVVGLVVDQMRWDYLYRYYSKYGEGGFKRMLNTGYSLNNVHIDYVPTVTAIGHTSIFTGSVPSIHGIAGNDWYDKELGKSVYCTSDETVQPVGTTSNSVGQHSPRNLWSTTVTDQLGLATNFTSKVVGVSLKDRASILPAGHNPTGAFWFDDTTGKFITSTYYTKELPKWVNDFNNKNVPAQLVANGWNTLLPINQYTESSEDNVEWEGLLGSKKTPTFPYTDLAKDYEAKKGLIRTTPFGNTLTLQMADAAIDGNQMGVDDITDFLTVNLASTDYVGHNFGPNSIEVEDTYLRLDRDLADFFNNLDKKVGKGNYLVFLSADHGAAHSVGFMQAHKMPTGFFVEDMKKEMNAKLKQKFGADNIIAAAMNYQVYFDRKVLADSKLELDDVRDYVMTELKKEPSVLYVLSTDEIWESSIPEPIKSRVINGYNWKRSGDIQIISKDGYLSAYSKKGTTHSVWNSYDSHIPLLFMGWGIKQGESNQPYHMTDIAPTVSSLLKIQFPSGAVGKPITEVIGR
In words: biochemical. Conditions: pH 8.0, subsaturating me-pNPP.

In the next assay the target is T2, T79S PafA (Elizabethkingia meningoseptica, UniProt Q9KJX5, T79S).
T2 sequence (Q9KJX5 26-546 T79S): T1 sequence (Q9KJX5 26-546) with T54S
In words: biochemical. Conditions: pH 8.0, subsaturating me-pNPP.

The next assay concerns the target T3, N100A PafA (Elizabethkingia meningoseptica, UniProt Q9KJX5, N100A).
T3 sequence (Q9KJX5 26-546 N100A): T1 sequence (Q9KJX5 26-546) with N75A
Description: biochemical. The settings on record: pH 8.0, subsaturating me-pNPP.

Another assay deals with T4, K162A PafA (Elizabethkingia meningoseptica, UniProt Q9KJX5, K162A).
T4 sequence (Q9KJX5 26-546 K162A): T1 sequence (Q9KJX5 26-546) with K137A
In words: biochemical. Conditions: pH 8.0, subsaturating me-pNPP.

In a further assay the target is T5, R164A PafA (Elizabethkingia meningoseptica, UniProt Q9KJX5, R164A).
T5 sequence (Q9KJX5 26-546 R164A): T1 sequence (Q9KJX5 26-546) with R139A
In words: biochemical. The settings on record: pH 8.0, subsaturating me-pNPP.

Assay [1] relates to EcAP. The settings on record: EcAP vs PafA.
Assay [2] addresses EcAP. Conditions: ref 39 and 57; cited from earlier work.

The structures appear in SMILES notation. Residue numbers refer to the chain shown, from its start. A value given as a limit tells only on which side of the number the result lay.

The term Ki denotes the dissociation constant of the complex between target and ligand, obtained from inhibition or displacement. A low value points to tighter binding. As to `[O]=[V]([OH])([OH])[OH]` [vanadate], the Ki on WT PafA amounted to 0.67 µM; at T79S PafA, 90 µM; at N100A PafA it was 190 µM; at K162A PafA, 79 µM; at R164A PafA, 300 µM.

With `[O]=[W](=[O])([OH])[OH]` [tungstate], the inhibitory constant (Ki) is 3.9 µM at WT PafA; 280 µM at T79S PafA; 570 µM at N100A PafA; more than 13000 µM at K162A PafA; 1300 µM at R164A PafA.

For the molecule `O=P(O)(O)O` [Pi, inorganic phosphate], in the assay on EcAP [1], the “product inhibition of EcAP stronger than that for PafA” value is recorded as “more than 3 orders of magnitude”. The “Ki (product inhibition)” value at EcAP [2] is “low micromolar”. The inhibitory constant (Ki) on WT PafA is 830 µM; on T79S PafA, 9.6 µM; on N100A PafA, 1300 µM; on K162A PafA, 4700 µM; at R164A PafA, more than 13000 µM.
